Values belong to the compound of their own block, whether it stands above or below them.
Key:
Jurkat = assay: Antiproliferative activity against human Jurkat T cells assessed as reduction in cell viability measured for 48 hrs by CCK-8 assay; format: functional, cell-based
B16-F10 = assay: Antiproliferative activity against mouse B16-F10 cells assessed as reduction in cell viability measured for 48 hrs by MTT assay; format: functional, cell-based; settings: B16-F10, 48 h
Histone deacetylase 8 = target: T1, Histone deacetylase 8 (Homo sapiens, UniProt Q9BY41); assay: Inhibition of human recombinant HDAC8 using Ac-Leu-Gly-Lys (Tfa)-AMC as substrate preincubated with compound for 10 mins followed by substrate addition and measured after 45 mins by TECAN microtiter plate reader analysis
T1 sequence (Q9BY41 whole entry): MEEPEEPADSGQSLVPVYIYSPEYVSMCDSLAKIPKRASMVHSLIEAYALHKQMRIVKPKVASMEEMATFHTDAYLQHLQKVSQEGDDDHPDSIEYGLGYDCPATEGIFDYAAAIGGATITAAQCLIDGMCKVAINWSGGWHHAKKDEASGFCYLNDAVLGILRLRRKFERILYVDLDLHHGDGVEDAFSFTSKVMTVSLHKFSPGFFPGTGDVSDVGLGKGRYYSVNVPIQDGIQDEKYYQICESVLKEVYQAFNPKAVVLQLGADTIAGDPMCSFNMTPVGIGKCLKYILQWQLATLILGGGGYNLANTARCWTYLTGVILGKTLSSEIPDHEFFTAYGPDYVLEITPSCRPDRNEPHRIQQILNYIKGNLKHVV

Histone deacetylase 1 = Histone deacetylase 1 (Homo sapiens, UniProt Q13547); assay: Inhibition of human recombinant HDAC1 using Ac-Leu-Gly-Lys (Ac)-AMC as substrate preincubated with compound for 10 mins followed by substrate addition and measured after 45 mins by TECAN microtiter plate reader analysis
MCF7 = assay: cells; settings: Homo sapiens, MCF7, 48 h
Description: Antiproliferative activity against human MCF7 cells assessed as reduction in cell viability measured for 48 hrs by MTT assay

Histone deacetylase 7 = target: T2, Histone deacetylase 7 (Homo sapiens, UniProt Q8WUI4); assay: Inhibition of human recombinant HDAC7 using Ac-Leu-Gly-Lys (Tfa)-AMC as substrate preincubated with compound for 10 mins followed by substrate addition and measured after 45 mins by TECAN microtiter plate reader analysis
T2 sequence (Q8WUI4 whole entry): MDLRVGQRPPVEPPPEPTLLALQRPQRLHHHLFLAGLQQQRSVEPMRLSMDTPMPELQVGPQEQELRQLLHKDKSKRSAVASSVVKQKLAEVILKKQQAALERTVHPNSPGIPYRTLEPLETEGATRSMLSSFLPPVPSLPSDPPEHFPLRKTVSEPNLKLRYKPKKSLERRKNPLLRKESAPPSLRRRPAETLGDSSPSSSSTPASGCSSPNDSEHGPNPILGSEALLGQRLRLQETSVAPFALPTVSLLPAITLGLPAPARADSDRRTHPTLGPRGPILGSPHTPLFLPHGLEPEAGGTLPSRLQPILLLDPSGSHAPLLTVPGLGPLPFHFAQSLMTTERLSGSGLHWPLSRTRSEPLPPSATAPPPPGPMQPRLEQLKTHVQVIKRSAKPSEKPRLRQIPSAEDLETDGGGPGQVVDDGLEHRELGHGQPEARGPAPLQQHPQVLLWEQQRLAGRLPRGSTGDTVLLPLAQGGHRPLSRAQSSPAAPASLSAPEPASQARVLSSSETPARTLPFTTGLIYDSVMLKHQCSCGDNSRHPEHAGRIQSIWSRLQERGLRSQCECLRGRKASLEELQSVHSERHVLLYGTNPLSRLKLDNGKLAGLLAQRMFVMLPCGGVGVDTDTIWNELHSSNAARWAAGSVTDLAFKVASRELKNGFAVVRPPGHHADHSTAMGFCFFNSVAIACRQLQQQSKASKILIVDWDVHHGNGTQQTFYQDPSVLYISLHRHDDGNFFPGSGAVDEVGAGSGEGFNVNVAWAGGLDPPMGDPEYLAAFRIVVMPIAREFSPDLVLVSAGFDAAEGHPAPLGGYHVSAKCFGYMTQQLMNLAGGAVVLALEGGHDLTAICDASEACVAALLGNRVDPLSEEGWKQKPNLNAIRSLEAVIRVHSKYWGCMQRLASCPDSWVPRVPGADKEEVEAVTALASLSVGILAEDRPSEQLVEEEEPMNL

HepG2 = assay: Antiproliferative activity against human HepG2 cells assessed as reduction in cell viability measured for 48 hrs by MTT assay; format: functional, cell-based; settings: HepG2, 48 h
Histone deacetylase 3 = Histone deacetylase 3 (Homo sapiens, UniProt O15379); assay: Inhibition of human recombinant HDAC3 using Ac-Leu-Gly-Lys (Ac)-AMC as substrate preincubated with compound for 10 mins followed by substrate addition and measured after 45 mins by TECAN microtiter plate reader analysis
HCT-116 = assay: cells; settings: Homo sapiens, HCT-116, 48 h
Description: Antiproliferative activity against human HCT-116 cells assessed as reduction in cell viability measured for 48 hrs by MTT assay

[1] = target: T3, Protein deacetylase HDAC6 (Homo sapiens, UniProt Q9UBN7); assay: Inhibition of human recombinant HDAC6 using Ac-Leu-Gly-Lys (Ac)-AMC as substrate preincubated with compound for 10 mins followed by substrate addition and measured after 45 mins by TECAN microtiter plate reader analysis
T3 sequence (Q9UBN7 whole entry): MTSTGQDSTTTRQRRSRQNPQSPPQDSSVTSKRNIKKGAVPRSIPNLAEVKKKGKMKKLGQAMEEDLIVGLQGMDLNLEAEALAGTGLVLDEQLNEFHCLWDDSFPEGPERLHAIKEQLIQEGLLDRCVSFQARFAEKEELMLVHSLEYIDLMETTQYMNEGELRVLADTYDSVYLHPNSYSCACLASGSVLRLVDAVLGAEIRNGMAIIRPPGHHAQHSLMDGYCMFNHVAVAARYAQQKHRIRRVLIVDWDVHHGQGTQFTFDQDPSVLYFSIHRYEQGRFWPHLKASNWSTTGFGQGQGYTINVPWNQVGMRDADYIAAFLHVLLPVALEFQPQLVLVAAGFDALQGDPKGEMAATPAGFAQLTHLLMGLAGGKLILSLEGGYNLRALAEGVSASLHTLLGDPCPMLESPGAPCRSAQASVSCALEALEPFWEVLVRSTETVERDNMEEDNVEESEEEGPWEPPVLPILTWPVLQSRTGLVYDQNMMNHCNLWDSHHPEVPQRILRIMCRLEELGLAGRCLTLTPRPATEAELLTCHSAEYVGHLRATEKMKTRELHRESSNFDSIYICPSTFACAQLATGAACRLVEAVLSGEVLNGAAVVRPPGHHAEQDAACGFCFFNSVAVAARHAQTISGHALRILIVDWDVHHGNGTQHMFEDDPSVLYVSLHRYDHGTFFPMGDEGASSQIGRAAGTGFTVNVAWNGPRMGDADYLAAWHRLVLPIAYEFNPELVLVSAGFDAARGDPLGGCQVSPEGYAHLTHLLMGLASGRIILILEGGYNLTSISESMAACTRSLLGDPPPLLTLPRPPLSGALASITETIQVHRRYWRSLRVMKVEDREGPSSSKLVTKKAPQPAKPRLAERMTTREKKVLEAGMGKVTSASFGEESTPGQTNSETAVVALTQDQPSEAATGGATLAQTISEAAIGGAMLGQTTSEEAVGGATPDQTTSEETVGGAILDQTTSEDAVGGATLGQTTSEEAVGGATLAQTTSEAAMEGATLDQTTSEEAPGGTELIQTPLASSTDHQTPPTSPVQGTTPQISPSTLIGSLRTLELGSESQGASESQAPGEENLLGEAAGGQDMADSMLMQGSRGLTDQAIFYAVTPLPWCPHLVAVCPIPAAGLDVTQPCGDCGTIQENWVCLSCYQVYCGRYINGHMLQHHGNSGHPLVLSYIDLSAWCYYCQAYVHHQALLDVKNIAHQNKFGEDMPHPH

Sequence of Histone deacetylase 1 (Q13547 whole entry): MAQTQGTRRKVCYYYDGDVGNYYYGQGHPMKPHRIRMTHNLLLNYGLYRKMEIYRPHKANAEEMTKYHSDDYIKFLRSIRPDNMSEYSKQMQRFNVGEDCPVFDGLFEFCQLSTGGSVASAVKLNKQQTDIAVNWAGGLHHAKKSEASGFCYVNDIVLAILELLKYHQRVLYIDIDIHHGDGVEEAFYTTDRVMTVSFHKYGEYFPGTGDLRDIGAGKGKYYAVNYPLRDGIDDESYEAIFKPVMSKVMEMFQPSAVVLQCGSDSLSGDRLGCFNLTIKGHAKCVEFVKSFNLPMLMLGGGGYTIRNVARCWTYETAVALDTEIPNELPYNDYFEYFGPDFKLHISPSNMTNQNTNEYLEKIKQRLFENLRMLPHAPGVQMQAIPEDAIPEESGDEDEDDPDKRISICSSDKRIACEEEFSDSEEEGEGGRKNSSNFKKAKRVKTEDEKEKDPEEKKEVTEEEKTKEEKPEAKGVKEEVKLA
Sequence of Histone deacetylase 3 (O15379 whole entry): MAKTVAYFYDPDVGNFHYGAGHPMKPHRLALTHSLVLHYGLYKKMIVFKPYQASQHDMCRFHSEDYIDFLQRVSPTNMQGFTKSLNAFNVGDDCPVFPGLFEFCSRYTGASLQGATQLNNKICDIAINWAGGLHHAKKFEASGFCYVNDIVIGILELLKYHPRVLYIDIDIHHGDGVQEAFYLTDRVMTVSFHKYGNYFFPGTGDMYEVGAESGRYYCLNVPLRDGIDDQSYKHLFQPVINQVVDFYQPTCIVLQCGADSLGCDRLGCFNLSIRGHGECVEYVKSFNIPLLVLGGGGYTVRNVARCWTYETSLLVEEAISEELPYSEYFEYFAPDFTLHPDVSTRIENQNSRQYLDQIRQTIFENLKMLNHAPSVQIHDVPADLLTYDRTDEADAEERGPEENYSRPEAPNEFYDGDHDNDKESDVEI

Compound: CCCNNC(=O)c1ncc(CNc2ccccc2)s1
IC50 (Jurkat): > 10000 nM

Compound: Nc1ccccc1NC(=O)c1ccc(NC(=O)c2ccc(-c3ncc(CNc4ccccc4)s3)cc2)cc1
IC50 (B16-F10): 1600 nM | IC50 (Jurkat): 70 nM | IC50 (Histone deacetylase 8): > 10000 nM | IC50 (Histone deacetylase 1): 640 nM | IC50 (MCF7): 3190 nM | IC50 (Histone deacetylase 7): > 10000 nM | IC50 (HepG2): > 10000 nM | IC50 (Histone deacetylase 3): 94 nM | IC50 (HCT-116): 1050 nM | IC50 [1]: 9100 nM

Compound: CCCNNC(=O)CCNC(=O)c1ncc(CNc2ccccc2)s1
IC50 (Jurkat): 4770 nM

Compound: Nc1ccccc1NC(=O)/C=C/c1ccc(-c2ncc(CNc3ccccc3)s2)cc1
IC50 (B16-F10): 3490 nM | IC50 (Jurkat): 200 nM | IC50 (Histone deacetylase 8): > 10000 nM | IC50 (Histone deacetylase 1): 310 nM | IC50 (MCF7): 4900 nM | IC50 (Histone deacetylase 7): > 10000 nM | IC50 (HepG2): 900 nM | IC50 (Histone deacetylase 3): 110 nM | IC50 (HCT-116): 7450 nM | IC50 [1]: 8010 nM

Compound: Nc1ccccc1NC(=O)CCCCCCC(=O)Nc1ccc(-c2ncc(CNc3ccccc3)s2)cc1
IC50 (Jurkat): 290 nM

Compound: Nc1ccccc1NC(=O)CCCCCC(=O)Nc1ccc(-c2ncc(CNc3ccccc3)s2)cc1
IC50 (B16-F10): 7200 nM | IC50 (Jurkat): 170 nM | IC50 (Histone deacetylase 8): > 10000 nM | IC50 (Histone deacetylase 1): 340 nM | IC50 (MCF7): 7880 nM | IC50 (Histone deacetylase 7): > 10000 nM | IC50 (HepG2): 1590 nM | IC50 (Histone deacetylase 3): 150 nM | IC50 (HCT-116): 6580 nM | IC50 [1]: 7720 nM

Results, then the compound that gave them:

IC50 (Jurkat): 1020 nM
Compound: Nc1ccccc1NC(=O)CCCC(=O)Nc1ccc(-c2ncc(CNc3ccccc3)s2)cc1

IC50 (Jurkat): 560 nM
Compound: Nc1ccccc1NC(=O)CCCNC(=O)c1ncc(CNc2ccccc2)s1

IC50 (Jurkat): > 10000 nM
Compound: Nc1ccccc1NC(=O)CCC(=O)Nc1ccc(-c2ncc(CNc3ccccc3)s2)cc1

IC50 (Jurkat): > 1220 nM
Compound: Nc1ccccc1NC(=O)CC(=O)Nc1ccc(-c2ncc(CNc3ccccc3)s2)cc1

IC50 (Jurkat): 400 nM
Compound: Nc1ccccc1NC(=O)c1ncc(CNc2ccccc2)s1

IC50 (Jurkat): 390 nM
Compound: Nc1ccccc1NC(=O)/C=C/c1ccc(CNC(=O)c2ncc(CNc3ccccc3)s2)cc1

IC50 (Jurkat): 1060 nM
Compound: Nc1ccccc1NC(=O)CCCCCNC(=O)c1ncc(CNc2ccccc2)s1

IC50 (Jurkat): > 10000 nM
Compound: Nc1ccccc1NC(=O)CNC(=O)c1ncc(CNc2ccccc2)s1
